Laboratory results taken from patent publication US20260124201A1, “CYCLOPENTANE COMPOUND” (Kissei Pharmaceutical Co., Ltd., priority 2022, published 2026).

Molecular target: T1, human OX2R (Homo sapiens, UniProt O43614)
T1 construct: expressed in transfected cells
T1 sequence (O43614 1-444): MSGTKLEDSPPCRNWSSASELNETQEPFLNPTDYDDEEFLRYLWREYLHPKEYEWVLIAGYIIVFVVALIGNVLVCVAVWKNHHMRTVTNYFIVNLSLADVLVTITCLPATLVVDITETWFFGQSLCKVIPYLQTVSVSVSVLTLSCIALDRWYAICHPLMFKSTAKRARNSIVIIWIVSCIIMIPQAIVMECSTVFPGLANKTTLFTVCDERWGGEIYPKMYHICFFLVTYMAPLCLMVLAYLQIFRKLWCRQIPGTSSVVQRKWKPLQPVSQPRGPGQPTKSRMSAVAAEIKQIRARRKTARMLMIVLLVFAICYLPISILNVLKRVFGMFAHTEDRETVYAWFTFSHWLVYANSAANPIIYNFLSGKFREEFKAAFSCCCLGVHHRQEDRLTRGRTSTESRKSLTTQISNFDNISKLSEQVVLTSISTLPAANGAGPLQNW
Experiment: Measurement of OX2R agonist activity (intracellular calcium concentration change, Fluo4-AM, FDSS 7000)
Type: cell-based
Settings: compound concentration 10 μM; human OX2R-expressing CHO-K1 cells; 1 μM human orexin A peptide = 100%, medium alone = 0%
Source text: The following abbreviations in the description, the figures and the tables have the following meanings, respectively. • AZADOL (registered trademark): 2-Hydroxy-2-azaadamantane • Boc2O: di-tert-butyl dicarbonate • DIPEA: N,N-diisopropylethylamine • DCM: dichloromethane • DMAP: 4-dimethylaminopyridine • DMF: N,N-dimethylformamide • DMSO: dimethylsulfoxide • Deoxo-Fluor: bis(2-methoxyethyl)-aminosulfur trifluoride • HATU: O-(7-azabenzotriazol-1-yl)-N,N,N′,N′-tetramethyluronium hexafluorophosphate • LDA: lithium diisopropylamide • MeCN: acetonitrile • Me4tBuXPhos: 2-di-tert-butylphosphino-3,4,5,6-tetramethyl-2′,4′,6′-triisopropyl-1,1′-biphenyl • MTBE: methyl tert-butyl ether • NMP: N-methylpyrrolidone • PdCl2(PPh3)2: dichlorobis(triphenylphosphine)palladium(II) • Pd(dba)2: bis(dibenzylideneacetone)palladium(0) • Pd2(dba)3: tris(dibenzylideneacetone)dipalladium(0) • Pd(dppf)Cl2: [1,1′-bis(diphenylphosphino)ferrocene]dichloropalladium(II) • Pd(PPh3)4: tetrakis(triphenylphosphine)palladium(0) • TEA: triethylamine • TFA: trifluoroacetic acid • THF: tetrahydrofuran • Xphos: 2-dicyclohexylphosphino-2′,4′,6′-triisopropylbiphenyl • Xphos Pd G3: (2-dicyclohexylphosphino-2′,4′,6′-triisopropyl-1,1′-biphenyl)[2-(2′-amino-1,1′-biphenyl)]palladium(II) methanesulfonic acid salt • 10% Pd/C: Palladium 10% on Carbon (wetted with ca. 55% water) • APS: aminopropylated silica gel • ODS: octadecyl-silylated silica gel • Method A: column chromatography with an aminopropylated silica gel column followed by a silica gel column • Chiral preparative column chromatography: chiral preparative column chromatography using YMC CHIRALART Cellulose-SB • Ref. No.: Reference Example Number • Str.: structural formula • Ex. No.: Example Number • Phys. data: physical data • ^1H-NMR: hydrogen nuclear magnetic resonance spectrum • CDCl3: chloroform-d1 • MS: mass spectrometry (The measured values in the tables were measured by electrospray ionization or multiionization using electrospray ionization-atmospheric pressure chemical ionization.) • Act.: activation rate of test substance at a compound concentration of 10 μM calculated by setting the fluorescence intensity obtained when human orexin A peptide was added at a concentration of 1 μM as 100% and the fluorescence intensity obtained when the medium alone was added as 0% • CHO: Chinese hamster ovary • HEPES: 2-[4-(2-hydroxyethyl)-1-piperazinyl]ethanesulfonic acid
A human OX2R sequence (Accession No. NM_001526.4) was inserted into the multiple cloning site of pcDNA3.4 (Life Technologies Japan Ltd.) to clone a plasmid vector for human OX2R expression. The plasmid was introduced into CHO-K1 cells using Lipofectamine 2000 (Life Technologies Japan Ltd.). Two days later, the transgenic CHO-K1 cells were passaged into 175T flasks and cultured selectively for 6 days. As a selection medium, Ham's F-12 Nutrient Mix (Life Technologies Japan Ltd.), containing Geneticin (registered trademark) (Life Technologies Japan Ltd.) at a final concentration of 1 mg/mL and inactivated fetal bovine serum (Biowest) at a final concentration of 10%, was used. After the selective culture, the cells were reseeded into 96-well plates, and a human OX2R-expressing cell line was obtained by limiting dilution.
The agonist effects of test substances on human OX2R were evaluated using the intracellular calcium concentration-change upon stimulation as an indicator. A day before measurement of the intracellular calcium concentrations, human OX2R-expressing cells suspended in a medium were seeded into 384-well plates at 5×10^3 cells/50 μL/well and cultured overnight in an incubator set at 37° C. and 5% CO2. After incubation, the medium was removed and replaced with 20 μL of a loading buffer. […]

CON(C)C(=O)[C@@]1(Cc2cccc(-n3nccn3)c2)CC[C@H](NS(C)(=O)=O)C1 (relative stereo) [Example 27, (1R*,3S*)-1-(3-(2H-1,2,3-Triazol-2-yl)benzyl)-N-methoxy-N-methyl-3-(methylsulfonamido)cyclopentane-1-carboxamide]
Act. (%): activation rate of test substance: 87%

CCN(C)C(=O)[C@@]1(Cc2cccc(-c3ncccn3)c2)CC[C@H](NS(C)(=O)=O)C1 (relative stereo) [Example 28, (1R*,3S*)—N-Ethyl-N-methyl-3-(methylsulfonamido)-1-(3-(pyrimidin-2-yl)benzyl)cyclopentane-1-carboxamide]
Act. (%): activation rate of test substance: 92%

CONC(=O)[C@@]1(Cc2cccc(-c3ncccn3)c2)CC[C@H](NS(C)(=O)=O)C1 (relative stereo) [Example 29, (1R*,3S*)—N-Methoxy-3-(methylsulfonamido)-1-(3-(pyrimidin-2-yl)benzyl)cyclopentane-1-carboxamide]
Act. (%): activation rate of test substance: 47%

CN(O)C(=O)[C@@]1(Cc2cccc(-c3ncccn3)c2)CC[C@H](NS(C)(=O)=O)C1 (relative stereo) [Example 30, (1R*,3S*)—N-Hydroxy-N-methyl-3-(methylsulfonamido)-1-(3-(pyrimidin-2-yl)benzyl)cyclopentane-1-carboxamide]
Act. (%): activation rate of test substance: 48%

CON(C)C(=O)[C@@]1(Cc2cccc(-c3ncccn3)c2)CC[C@H](NS(=O)(=O)C2(C)CC2)C1 (relative stereo) [Example 31, (1R*,3S*)—N-Methoxy-N-methyl-3-((1-methylcyclopropane)-1-sulfonamido)-1-(3-(pyrimidin-2-yl)benzyl)cyclopentane-1-carboxamide]
Act. (%): activation rate of test substance: 107%

CON(C)C(=O)[C@@]1(Cc2cccc(-c3ncccn3)c2)C[C@@H](F)[C@H](NS(C)(=O)=O)C1 (relative stereo) [Example 32, (1R*,3R*,4R*)-3-Fluoro-N-methoxy-N-methyl-4-(methylsulfonamido)-1-(3-(pyrimidin-2-yl)benzyl)cyclopentane-1-carboxamide]
Act. (%): activation rate of test substance: 89%

CON(C)C(=O)[C@@]1(Cc2cccc(-c3ncccn3)c2)C[C@H](F)[C@H](NS(C)(=O)=O)C1 (relative stereo) [Example 33]
Act. (%): activation rate of test substance: 83%

CON(C)C(=O)[C@@]1(Cc2ccc(F)c(-c3ncc(F)cn3)c2)C[C@H](F)[C@H](NS(=O)(=O)N(C)C)C1 (relative stereo) [Example 34, (1R*,3R*,4S*)-3-((N,N-Dimethylsulfamoyl)amino)-4-fluoro-1-(4-fluoro-3-(5-fluoropyrimidin-2-yl)benzyl)-N-methoxy-N-methylcyclopentane-1-carboxamide]
Act. (%): activation rate of test substance: 90%

CON(C)C(=O)[C@@]1(Cc2cccc(-c3ncc(F)cn3)c2)C[C@H](F)[C@H](NS(=O)(=O)N(C)C)C1 (relative stereo) [Example 35, (1R*,3R*,4S*)-3-((N,N-Dimethylsulfamoyl)amino)-4-fluoro-1-(3-(5-fluoropyrimidin-2-yl)benzyl)-N-methoxy-N-methylcyclopentane-1-carboxamide]
Act. (%): activation rate of test substance: 92%

CCS(=O)(=O)N[C@@H]1C[C@@](Cc2ccc(F)c(-c3ncc(F)cn3)c2)(C(=O)N(C)OC)C[C@@H]1F (relative stereo) [Example 36, (1R*,3R*,4S*)-3-(Ethylsulfonamido)-4-fluoro-1-(4-fluoro-3-(5-fluoropyrimidin-2-yl)benzyl)-N-methoxy-N-methylcyclopentane-1-carboxamide]
Act. (%): activation rate of test substance: 84%

CON(C)C(=O)[C@@]1(Cc2cc(-c3ncc(F)cn3)ccc2F)C[C@H](F)[C@H](NS(C)(=O)=O)C1 (relative stereo) [Example 37, (1R*,3S*,4R*)-3-Fluoro-1-(2-fluoro-5-(5-fluoropyrimidin-2-yl)benzyl)-N-methoxy-N-methyl-4-(methylsulfonamido)cyclopentane-1-carboxamide]
Act. (%): activation rate of test substance: 90%

CON(C)C(=O)[C@@]1(Cc2cc(-c3ncccn3)ccc2F)C[C@H](F)[C@H](NS(=O)(=O)C(F)(F)F)C1 (relative stereo) [Example 38, (1R*,3S*,4R*)-3-Fluoro-1-(2-fluoro-5-(pyrimidin-2-yl)benzyl)-N-methoxy-N-methyl-4-((trifluoromethyl)sulfonamido)cyclopentane-1-carboxamide]
Act. (%): activation rate of test substance: 93%

CON(C)C(=O)[C@@]1(Cc2ccc(O)c(-c3ncc(F)cn3)c2)C[C@H](F)[C@H](NS(C)(=O)=O)C1 (relative stereo) [Example 39, (1R*,3S*,4R*)-3-Fluoro-1-(3-(5-fluoropyrimidin-2-yl)-4-hydroxybenzyl)-N-methoxy-N-methyl-4-(methylsulfonamido)cyclopentane-1-carboxamide]
Act. (%): activation rate of test substance: 91%

CON(C)C(=O)[C@]1(Cc2cccc(-c3ncccn3)c2)C[C@@H](NS(C)(=O)=O)C(F)(F)C1 (relative stereo) [Example 40, (1R*,4R*)-3,3-Difluoro-N-methoxy-N-methyl-4-(methylsulfonamido)-1-(3-(pyrimidin-2-yl)benzyl)cyclopentane-1-carboxamide]
Act. (%): activation rate of test substance: 88%

CON(C)C(=O)[C@]1(Cc2cccc(-c3ncc(F)cn3)c2)C[C@@H](NS(=O)(=O)N(C)C)C(F)(F)C1 (relative stereo) [Example 41]
Act. (%): activation rate of test substance: 93%

CON(C)C(=O)[C@]1(Cc2ccc(F)c(-c3ncc(F)cn3)c2)C[C@@H](NS(C)(=O)=O)C(F)(F)C1 (relative stereo) [Example 42]
Act. (%): activation rate of test substance: 87%

CON(C)C(=O)[C@]1(Cc2cc(-c3ncc(F)cn3)ccc2F)C[C@@H](NS(C)(=O)=O)C(F)(F)C1 (relative stereo) [Example 43]
Act. (%): activation rate of test substance: 93%

CON(C)C(=O)[C@@]1(Cc2cccc(-c3ncc(F)cn3)c2)C[C@@H](C)[C@H](NS(C)(=O)=O)C1 (relative stereo) [Example 44, (1R*,3R*,4R*)-1-(3-(5-Fluoropyrimidin-2-yl)benzyl)-N-methoxy-N,3-dimethyl-4-(methylsulfonamido)cyclopentane-1-carboxamide]
Act. (%): activation rate of test substance: 96%

CON(C)C(=O)[C@@]1(Cc2cccc(-c3ncc(F)cn3)c2)C[C@H](C)[C@H](NS(C)(=O)=O)C1 (relative stereo) [Example 45, (1R*,3S*,4R*)-1-(3-(5-Fluoropyrimidin-2-yl)benzyl)-N-methoxy-N,3-dimethyl-4-(methylsulfonamido)cyclopentane-1-carboxamide]
Act. (%): activation rate of test substance: 93%

COCCNC(=O)[C@@]1(Cc2cccc(-c3ccccc3)c2)CC[C@H](NS(C)(=O)=O)C1 (relative stereo) [Example 69]
Act. (%): activation rate of test substance: 44%
